Reference: US6759207B2, “Fluorogenic or fluorescent reporter molecules and their applications for whole-cell fluorescence screening assays for caspases and other enzymes and the use thereof” (Cytovia, Inc., priority 1997, dated 2004)
Blank lines part the entries; values can stand above or below the compound they belong to.

Assays:
[1] = Fluorescence of modified Rhodamine dyes (spectrometry and spectrofluorometry); assay type: physicochemical
Method: Modified Rhodamine dyes were evaluated using both conventional spectrometry and spectrofluorometry. For both types of analysis the dyes were dissolved in either methanol or 50 mM Tris at final dye concentrations ranging from 10 nM to 100 μM. An absorbance spectrum from wavelengths of 200 nm to 700 nm was determined for each dye using a Beckman DU-7000 spectrophotometer. The dyes all had absorbance peaks at around 470 to 480 nm. This wavelength was chosen as the fluorescence excitation wavelength and a full fluorescence emission spectrum was determined using a Hitachi F-2000 spectrofluorometer. For each dye, the emission peak was around 520 nm and the fluorescent output was measured under the conditions tested (see Table 1).

recombinant CPP32 = molecular target: T1, recombinant CPP32 (Homo sapiens, UniProt P42574); test: Fluorometric enzyme assay, cleavage of substrate by recombinant CPP32; assay type: biochemical; settings: for CPP32 Vmax: 1-100 μM substrate, 37° C.; for efficiency as substrate for CPP32: summary of Table 4
T1 construct: made in house; host or cells: Sf9 insect cells, baculovirus vector
T1 sequence (P42574 29-175 limits assumed): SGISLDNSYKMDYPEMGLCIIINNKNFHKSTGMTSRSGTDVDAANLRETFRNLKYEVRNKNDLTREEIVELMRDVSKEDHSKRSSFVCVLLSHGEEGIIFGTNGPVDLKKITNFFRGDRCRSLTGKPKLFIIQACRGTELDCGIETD
T1 sequence (P42574 176-277 limits assumed): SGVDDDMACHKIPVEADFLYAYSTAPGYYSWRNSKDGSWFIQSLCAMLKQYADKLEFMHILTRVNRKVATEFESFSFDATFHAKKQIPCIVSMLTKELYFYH
Method: (§1) The activities of N-(Z-VD)-N′-acetyl-Rhodamine 110, N-(Z-VAD)-N′-acetyl-Rhodamine 110, N-(Z-DEVD)-N′-acetyl-Rhodamine 110 SEQ ID NO:5, N-(Z-YVAD)-N-acetyl-Rhodamine 110 SEQ ID NO:2, (Z-VAD)2-Rhodamine 110 and (Z-YVAD)2-Rhodamine 110 SEQ ID NO:2 as synthetic substrates for recombinant CPP32 and ICE were measured in a fluorometric enzyme assay. […] See, Webb, N. R. et al., “Expression of proteins using recombinant Baculovirus,” Techniques 2:173-188 (1990). Cleavage of the synthetic substrates by the enzyme results in a fluorescent signal which is read in a spectrofluorometer or in a fluorometric microtiter plate reader. Using this assay, the Km and Vmax values were determined for each substrate with either CPP32 or ICE.
(§2) CPP32 and ICE dependent substrate cleavage was measured using the following buffer conditions: 100 mM HEPES pH 7.5, with 10% sucrose, 1% CHAPS, 5 mM glutathione, and 1-100 μM test substrate. Nonspecific enzyme cleavage was determined with the use of the specific CPP32 and ICE inhibitors consisted of an oligomer with the sequence Asp-Glu-Val-Asp or Tyr-Val-Ala-Asp, respectively, with an aldehyde group conjugated to the C-terminus. The assay for enzyme activity was typically carried out at 37° C. for 60 minutes.

recombinant ICE = molecular target: T2, recombinant ICE (Homo sapiens, UniProt P29466); test: Fluorometric enzyme assay, cleavage of substrate by recombinant ICE; assay type: biochemical; settings: for efficiency as substrate for ICE: summary of Table 4; for ICE Vmax / Km: 1-100 μM substrate, 37° C.; for Km: NA = no activity observed at 1-100 μM substrate, 3 h incubation
T2 construct: made in house; host or cells: Sf9 insect cells, baculovirus vector
T2 sequence (P29466 120-297 limits assumed): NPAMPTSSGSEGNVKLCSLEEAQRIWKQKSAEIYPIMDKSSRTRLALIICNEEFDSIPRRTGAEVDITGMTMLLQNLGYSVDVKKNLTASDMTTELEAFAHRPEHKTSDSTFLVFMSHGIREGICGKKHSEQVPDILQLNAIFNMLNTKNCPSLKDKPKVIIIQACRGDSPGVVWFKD
T2 sequence (P29466 317-404 limits assumed): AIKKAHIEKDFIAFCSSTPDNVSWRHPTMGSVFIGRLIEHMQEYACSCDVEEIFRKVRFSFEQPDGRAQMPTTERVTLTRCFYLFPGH
Method: as §1, §2

HL-60 cells = test: Uptake and retention of modified Rhodamine dyes by HL-60 cells (epifluorescence microscopy); assay type: cell-based; settings: 10 μM or 50 μM dye; for staining of HL-60 cells: 37° C., serum-free Iscove's medium; for leakage of the dye into the medium / retention in cells: after washing
Method: HL-60 cells were placed in 5 ml of Iscove's medium (without serum or phenol-red) containing 10 μM or 50 μM N-octyloxycarbonyl-Rhodamine 110, N-decyloxycarbonyl-Rhodamine-110, N-dodecyloxycarbonyl-Rhodamine-110, N-hexyloxycarbonyl-Rhodamine-110, N-(ethylthio)carbonyl-Rhodamine 110 or Rhodamine 110. The cells were incubated for varying times at 37° C. in a CO2 incubator, recovered by centrifugation, and washed in 50 mL of ice-cold medium. The cells were re-centrifuged and the final pellet was resuspended in 50 μL of fresh medium. Aliquots of each cell suspension were placed in microslides and viewed on a Nikon inverted microscope with epifluorescent illumination.

Compound: CCOC(=O)Nc1ccc2c(c1)Oc1cc(N)ccc1C21OC(=O)c2ccccc21 (stereo not shown) [N-Ethoxycarbonyl-Rhodamine 110]
- Peak Emission Wavelength ([1]; Test Conc. 1 μM, Tris): 520 nm
- Peak Excitation Wavelength ([1]; Test Conc. 1 μM, Tris): 485 nm
- Signal Amplitude ([1]; Test Conc. 1 μM, Tris): 3070

Compound: CC(=O)Nc1ccc2c(c1)Oc1cc(NC(=O)C(CC(=O)O)NC(=O)C(NC(=O)OCc3ccccc3)C(C)C)ccc1C21OC(=O)c2ccccc21 (stereo not shown) [N-(Z-VD)-N′-Ac-Rhodamine 110, N-(Z-Val-Asp)-N′-acetyl-Rhodamine 110]
- CPP32 Vmax (recombinant CPP32): 11 nmol/min
- efficiency as substrate for CPP32 (recombinant CPP32): efficient substrate
- efficiency as substrate for ICE (recombinant ICE): not for ICE

Compound: CCCCCCCCOC(=O)Nc1ccc2c(c1)Oc1cc(N)ccc1C21OC(=O)c2ccccc21 (stereo not shown) [N-Octyloxycarbonyl-Rhodamine 110]
- Peak Emission Wavelength ([1]; Test Conc. 1 μM, MeOH): 520 nm
- Peak Excitation Wavelength ([1]; Test Conc. 1 μM, MeOH): 470 nm
- Signal Amplitude ([1]; Test Conc. 1 μM, MeOH): 850
- staining of HL-60 cells (HL-60 cells): stained HL-60 cells intensely
- leakage of the dye into the medium / retention in cells (HL-60 cells): almost no leakage of the dye into the medium

Compound: COCCOCCOCCOC(=O)Nc1ccc2c(c1)Oc1cc(N)ccc1C21OC(=O)c2ccccc21 (stereo not shown) [N-(2,5,8-Trioxadecyloxycarbonyl)-Rhodamine 110]
- Peak Emission Wavelength ([1]; Test Conc. 1 μM, Tris): 520 nm
- Peak Excitation Wavelength ([1]; Test Conc. 1 μM, Tris): 485 nm
- Signal Amplitude ([1]; Test Conc. 1 μM, Tris): 2841

Compound: CC(=O)Nc1ccc2c(c1)Oc1cc(NC(=O)C(CC(=O)O)NC(=O)C(C)NC(=O)C(NC(=O)OCc3ccccc3)C(C)C)ccc1C21OC(=O)c2ccccc21 (stereo not drawn) [N-(Z-VAD)-N′-Ac-Rhodamine 110, N-(Z-Val-Ala-Asp)-N′-acetyl-Rhodamine 110]
- efficiency as substrate for CPP32 (recombinant CPP32): not for CPP32
- ICE Vmax (recombinant ICE): 4 nmol/min
- Km (recombinant ICE): 70 µM
- efficiency as substrate for ICE (recombinant ICE): efficient substrates

Compound: CS(=O)(=O)Nc1ccc2c(c1)Oc1cc(N)ccc1C21OC(=O)c2ccccc21 (stereo not shown) [N-Methylsulfonyl-Rhodamine-110, N-Methylsulfonyl-Rhodamine 110]
- Peak Emission Wavelength ([1]; Test Conc. 1 μM, Tris): 520 nm
- Peak Excitation Wavelength ([1]; Test Conc. 1 μM, Tris): 485 nm
- Signal Amplitude ([1]; Test Conc. 1 μM, Tris): 988

Compound: CN(C)C(=O)Nc1ccc2c(c1)Oc1cc(N)ccc1C21OC(=O)c2ccccc21 (stereo not shown) [N-Dimethylcarbamyl-Rhodamine-110, N-Dimethylcarbamyl-Rhodamine 110]
- Peak Emission Wavelength ([1]; Test Conc. 0.1 μM, Tris): 520 nm
- Peak Excitation Wavelength ([1]; Test Conc. 0.1 μM, Tris): 490 nm
- Signal Amplitude ([1]; Test Conc. 0.1 μM, Tris): 446

Compound: CCCCCCSC(=O)Nc1ccc2c(c1)Oc1cc(N)ccc1C21OC(=O)c2ccccc21 (stereo not shown) [N-(Hexylthio)carbonyl-Rhodamine 110]
- Peak Emission Wavelength ([1]; Test Conc. 1 μM, MeOH): 530 nm
- Peak Excitation Wavelength ([1]; Test Conc. 1 μM, MeOH): 490 nm
- Signal Amplitude ([1]; Test Conc. 1 μM, MeOH): 650

Compound: CC(=O)Nc1ccc2c(c1)Oc1cc(NC(=O)[C@H](CC(=O)O)NC(=O)[C@@H](NC(=O)[C@H](CCC(=O)O)NC(=O)[C@H](CC(=O)O)NC(=O)OCc3ccccc3)C(C)C)ccc1C21OC(=O)c2ccccc21 (stereo partly drawn) [N-(Z-DEVD)-N′-Ac-Rhodamine 110, N-(Z-Asp-Glu-Val-Asp)-N′-acetyl-Rhodamine 110]
- CPP32 Vmax (recombinant CPP32): 160 nmol/min
- efficiency as substrate for CPP32 (recombinant CPP32): efficient substrate
- ICE Vmax (recombinant ICE): 9 nmol/min
- Km (recombinant ICE): 12 µM
- efficiency as substrate for ICE (recombinant ICE): efficient substrate

Compound: CCCCCCCCCCOC(=O)Nc1ccc2c(c1)Oc1cc(N)ccc1C21OC(=O)c2ccccc21 (stereo not shown) [N-Decyloxycarbonyl-Rhodamine 110, N-Decyloxycarbonyl-Rhodamine-110]
- Peak Emission Wavelength ([1]; Test Conc. 1 μM, MeOH): 520 nm
- Peak Excitation Wavelength ([1]; Test Conc. 1 μM, MeOH): 475 nm
- Signal Amplitude ([1]; Test Conc. 1 μM, MeOH): 827
- staining of HL-60 cells (HL-60 cells): stained HL-60 cells intensely
- leakage of the dye into the medium / retention in cells (HL-60 cells): almost no leakage of the dye into the medium

Compound: CCCCOCCOC(=O)Nc1ccc2c(c1)Oc1cc(N)ccc1C21OC(=O)c2ccccc21 (stereo not shown) [N-(2-Butoxyethoxy)carbonyl-Rhodamine 110, N-(2-Butoxyethoxycarbonyl)-Rhodamine 110]
- Peak Emission Wavelength ([1]; Test Conc. 1 μM, Tris): 520 nm
- Peak Excitation Wavelength ([1]; Test Conc. 1 μM, Tris): 470 nm
- Signal Amplitude ([1]; Test Conc. 1 μM, Tris): 2047

Compound: CCCCCCCCCCCCOC(=O)Nc1ccc2c(c1)Oc1cc(N)ccc1C21OC(=O)c2ccccc21 (stereo not shown) [N-Dodecyloxycarbonyl-Rhodamine 110, N-Dodecyloxycarbonyl-Rhodamine-110]
- Peak Emission Wavelength ([1]; Test Conc. 1 μM, MeOH): 520 nm
- Peak Excitation Wavelength ([1]; Test Conc. 1 μM, MeOH): 480 nm
- Signal Amplitude ([1]; Test Conc. 1 μM, MeOH): 640
- staining of HL-60 cells (HL-60 cells): stained HL-60 cells intensely
- leakage of the dye into the medium / retention in cells (HL-60 cells): almost no leakage of the dye into the medium

Compound: COC(=O)Nc1ccc2c(c1)Oc1cc(N)ccc1C21OC(=O)c2ccccc21 (stereo not shown) [N-Methoxycarbonyl-Rhodamine 110]
- Peak Emission Wavelength ([1]; Test Conc. 0.1 μM, Tris): 520 nm
- Peak Excitation Wavelength ([1]; Test Conc. 0.1 μM, Tris): 470 nm
- Signal Amplitude ([1]; Test Conc. 0.1 μM, Tris): 254

Compound: CCCCCCN(C)C(=O)Nc1ccc2c(c1)Oc1cc(N)ccc1C21OC(=O)c2ccccc21 (stereo not shown) [N-(N-Hexyl-N-methylcarbamyl)-Rhodamine 110]
- Peak Emission Wavelength ([1]; Test Conc. 1 μM, Tris): 520 nm
- Peak Excitation Wavelength ([1]; Test Conc. 1 μM, Tris): 470 nm
- Signal Amplitude ([1]; Test Conc. 1 μM, Tris): 1466

Now from value to compound, other results behind:

- efficiency as substrate for CPP32 (recombinant CPP32): not for CPP32
- ICE Vmax (recombinant ICE): 96 nmol/min
- Km (recombinant ICE): 32 µM
- efficiency as substrate for ICE (recombinant ICE): efficient substrates
Compound: CC(=O)Nc1ccc2c(c1)Oc1cc(NC(=O)[C@H](CC(=O)O)NC(=O)[C@H](C)NC(=O)[C@@H](NC(=O)[C@H](Cc3ccc(O)cc3)NC(=O)OCc3ccccc3)C(C)C)ccc1C21OC(=O)c2ccccc21 (stereo partly drawn) [N-(Z-YVAD)-N′-Ac-Rhodamine 110, N-(Z-Tyr-Val-Ala-Asp)-N′-acetyl-Rhodamine 110]

- Peak Emission Wavelength ([1]; Test Conc. 0.1 μM, MeOH): 520 nm
- Peak Excitation Wavelength ([1]; Test Conc. 0.1 μM, MeOH): 465 nm
- Signal Amplitude ([1]; Test Conc. 0.1 μM, MeOH): 109
Compound: CCCCCCOC(=O)Nc1ccc2c(c1)Oc1cc(N)ccc1C21OC(=O)c2ccccc21 (stereo not shown) [N-Hexyloxycarbonyl-Rhodamine 110, N-Hexyloxycarbonyl-Rhodamine-110]
- staining of HL-60 cells (HL-60 cells): stained HL-60 cells less intensely
- leakage of the dye into the medium / retention in cells (HL-60 cells): still well-retained

- Peak Emission Wavelength ([1]; Test Conc. 1 μM, Tris): 530 nm
- Peak Excitation Wavelength ([1]; Test Conc. 1 μM, Tris): 470 nm
- Signal Amplitude ([1]; Test Conc. 1 μM, Tris): 644
Compound: N-Acetyl-Rhodamine 116

- Peak Emission Wavelength ([1]; Test Conc. 0.01 μM, Tris): 520 nm
- Peak Excitation Wavelength ([1]; Test Conc. 0.01 μM, Tris): 490 nm
- Signal Amplitude ([1]; Test Conc. 0.01 μM, Tris): 284
Compound: Cl.N=c1ccc2c(-c3ccccc3C(=O)O)c3ccc(N)cc3oc-2c1 [Rhodamine 110, reference compound]
- staining of HL-60 cells (HL-60 cells): low intensity of cellular staining
- leakage of the dye into the medium / retention in cells (HL-60 cells): quickly leaked out of the cells

- Peak Emission Wavelength ([1]; Test Conc. 1 μM, Tris): 520 nm
- Peak Excitation Wavelength ([1]; Test Conc. 1 μM, Tris): 490 nm
- Signal Amplitude ([1]; Test Conc. 1 μM, Tris): 2430
Compound: CCSC(=O)Nc1ccc2c(c1)Oc1cc(N)ccc1C21OC(=O)c2ccccc21 (stereo not shown) [N-(Ethylthio)carbonyl-Rhodamine 110]
- staining of HL-60 cells (HL-60 cells): moderate, but still easily detectable staining
- leakage of the dye into the medium / retention in cells (HL-60 cells): slight leakage

- Peak Emission Wavelength ([1]; Test Conc. 1 μM, MeOH): 520 nm
- Peak Excitation Wavelength ([1]; Test Conc. 1 μM, MeOH): 470 nm
- Signal Amplitude ([1]; Test Conc. 1 μM, MeOH): 471
Compound: CCCCCCCCSC(=O)Nc1ccc2c(c1)Oc1cc(N)ccc1C21OC(=O)c2ccccc21 (stereo not shown) [N-(Octylthio)carbonyl-Rhodamine 110, N-(Octylthio)carbonyl Rhodamine 110]
